Experimental data published in US11369565B2, “Amino-pyrimidine skeletal muscle modulators” (Cytokinetics, Inc., priority 2010, dated 2022).

System: rabbit skeletal myofibrils (approximately 90% fast fibers)
Assay: Activation of fast skeletal myofibrils (PUMA coupled-enzyme ATPase assay at pCa25)
Assay type: biochemical
Details: concentration at which the compound increased the enzymatic activity by 40%; calcium at pCa25; PM12 buffer pH 6.8
Procedure, shortened: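 Detergent-washed rabbit psoas myofibrils tested at calcium giving 25% of maximal rate (pCa25). ATPase activity tracked by pyruvate kinase/lactate dehydrogenase coupling, NADH oxidation read as absorbance at 340 nm, in PM12 buffer (12 mM Pipes, 2 mM MgCl2, 1 mM DTT, pH 6.8).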

SMILES: NC(=O)c1ccc(F)cc1-c1cnc(NC[C@]2(c3ncccc3F)C[C@H](F)C2)nc1 [4-fluoro-2-[2-({[3-fluoro-1-(3-fluoro(2-pyridyl))cyclobutyl]methyl}amino)pyrimidin-5-yl]benzamide]
- Mean AC1.4: B (B=1-10 uM)

SMILES: CC(C)(Nc1ncc(-c2cc(C(N)=O)ccc2F)cn1)c1ncccc1F [4-fluoro-3-(2-{[1-(3-fluoro(2-pyridyl))-isopropyl]amino}pyrimidin-5-yl)benzamide]
- Mean AC1.4: B (B=1-10 uM)

SMILES: COc1cccnc1C(C)(C)Nc1ncc(-c2cc(C(N)=O)ccc2F)cn1 [4-fluoro-3-(2-{[1-(3-methoxy(2-pyridyl))-isopropyl]amino}pyrimidin-5-yl)benzamide]
- Mean AC1.4: C (C=10-20 uM)

SMILES: COc1cccnc1C(C)(C)Nc1ncc(-c2cc(C#N)ccc2F)cn1 [4-fluoro-3-(2-{[1-(3-methoxy(2-pyridyl))-isopropyl]amino}pyrimidin-5-yl)benzenecarbonitrile]
- Mean AC1.4: D (D=>20 uM)

SMILES: Cc1cccnc1C(C)(C)Nc1ncc(-c2cc(C(N)=O)ccc2F)cn1 [4-fluoro-3-(2-{[1-methyl-1-(3-methyl(2-pyridyl))ethyl]amino}pyrimidin-5-yl)benzamide]
- Mean AC1.4: B (B=1-10 uM)

SMILES: CC(C)(CNc1ncc(-c2cc(C(N)=O)ccc2F)cn1)c1ncccc1F [4-fluoro-3-(2-{[2-(3-fluoro(2-pyridyl))-2-methylpropyl]amino}pyrimidin-5-yl)benzamide]
- Mean AC1.4: B (B=1-10 uM)

SMILES: NC(=O)c1ccc(F)c(-c2cnc(NCC3(c4ccccn4)CCC3)nc2)c1 [4-fluoro-3-(2-{[(2-pyridylcyclobutyl]methyl]amino}pyrimidin-5-yl)benzamide]
- Mean AC1.4: A (A=<1 uM)

SMILES: NC(=O)c1ccc(F)c(-c2cnc(NC3(c4ncccc4F)CCC3)nc2)c1 [4-fluoro-3-(2-{[(3-fluoro(2-pyridyl))cyclobutyl]amino}pyrimidin-5-yl)benzamide]
- Mean AC1.4: A (A=<1 uM)

SMILES: NC(=O)c1ccc(F)c(-c2cnc(NC3(c4ccc(F)cc4)CCC3)nc2)c1 [4-fluoro-3-(2-{[(4-fluorophenyl)cyclobutyl]amino}pyrimidin-5-yl)benzamide]
- Mean AC1.4: A (A=<1 uM)

SMILES: NC(=O)c1ccc(F)c(-c2cnc(NC[C@]3(c4ncccc4F)C[C@H](F)C3)nc2)c1O [4-fluoro-3-[2-({[3-fluoro)-1-(3-fluoro(2-pyridyl))cyclobutyl]methyl}amino)pyrimidin-5-yl]-2-hydroxybenzamide]
- Mean AC1.4: A (A=<1 uM)

SMILES: NC(=O)c1ccc(F)c(-c2cnc(NCC3(c4ncccc4F)CC(F)C3)nc2)c1 (stereo not shown) [4-fluoro-3-[2-({[3-fluoro-1-(3-fluoro(2-pyridyl))cyclobutyl]methyl}amino)pyrimidin-5-yl]benzamide]
- Mean AC1.4: A (A=<1 uM)

SMILES: NC(=O)c1ccc(F)c(-c2cnc(NCC3(c4ncccc4F)CCC3)nc2)c1 [4-fluoro-3-[2-({[(3-fluoro(2-pyridyl))cyclobutyl]methyl}amino)pyrimidin-5-yl]benzamide]
- Mean AC1.4: A (A=<1 uM)

SMILES: CC(C)(Nc1ncc(-c2cnnc(C(N)=O)c2)cn1)c1ncccc1Cl [5-(2-{[1-(3-chloro(2-pyridyl))-isopropyl]amino)pyrimidin-5-yl)pyridazine-3-carboxamide]
- Mean AC1.4: B (B=1-10 uM)

SMILES: CC(C)(Nc1ncc(-c2nnc(C(N)=O)s2)cn1)c1ncccc1Cl [5-(2-{[1-(3-chloro(2-pyridyl))-isopropyl]amino}pyrimidin-5-yl)-1,3,4-thiadiazole-2-carboxamide]
- Mean AC1.4: D (D=>20 uM)

SMILES: CC(C)(Nc1ncc(-c2cnc(C(N)=O)s2)cn1)c1ncccc1Cl [5-(2-{[1-(3-chloro(2-pyridyl))-isopropyl]amino}pyrimidin-5-yl)-1,3-thiazole-2-carboxamide]
- Mean AC1.4: B (B=1-10 uM)

SMILES: COc1ncc(-c2cnc(NC(C)(C)c3ncccc3Cl)nc2)cc1C#N [5-(2-{[1-(3-chloro(2-pyridyl))-isopropyl]amino}pyrimidin-5-yl)-2-methoxypyridine-3-carbonitrile]
- Mean AC1.4: D (D=>20 uM)

SMILES: COc1ncc(-c2cnc(NC(C)(C)c3ncccc3Cl)nc2)cc1C(N)=O [5-(2-{[1-(3-chloro(2-pyridyl))-isopropyl]amino}pyrimidin-5-yl)-2-methoxypyridine-3-carboxamide]
- Mean AC1.4: B (B=1-10 uM)

SMILES: CC(C)(Nc1ncc(-c2c[nH]c(=O)c(C(N)=O)c2)cn1)c1ncccc1Cl [5-(2-{[1-(3-chloro(2-pyridyl))-isopropyl]amino}pyrimidin-5-yl)-2-oxohydropyridine-3-carboxamide]
- Mean AC1.4: B (B=1-10 uM)

SMILES: CC(C)(Nc1ncc(-c2cc(C(N)=O)no2)cn1)c1ncccc1Cl [5-(2-{[1-(3-chloro(2-pyridyl))-isopropyl]amino}pyrimidin-5-yl)isoxazole-3-carboxamide]
- Mean AC1.4: B (B=1-10 uM)

SMILES: CC(C)(Nc1ncc(-c2cc(C(N)=O)n[nH]2)cn1)c1ncccc1Cl [5-(2-{[1-(3-chloro(2-pyridyl))-isopropyl]amino}pyrimidin-5-yl)pyrazole-3-carboxamide]
- Mean AC1.4: C (C=10-20 uM)

SMILES: CC(C)(Nc1ncc(-c2cncc(C(N)=O)c2)cn1)c1ncccc1Cl [5-(2-{[1-(3-chloro(2-pyridyl))-isopropyl]amino}pyrimidin-5-yl)pyridine-3-carboxamide]
- Mean AC1.4: B (B=1-10 uM)

SMILES: CC(C)(Nc1ncc(-c2ccc(C(N)=O)s2)cn1)c1ncccc1Cl [5-(2-{[1-(3-chloro(2-pyridyl))-isopropyl]amino}pyrimidin-5-yl)thiophene-2-carboxamide]
- Mean AC1.4: B (B=1-10 uM)

SMILES: CC(C)(Nc1ncc(-c2ccc(C(=O)O)s2)cn1)c1ncccc1Cl [5-(2-{[1-(3-chloro(2-pyridyl))-isopropyl]amino}pyrimidin-5-yl)thiophene-2-carboxylic acid]
- Mean AC1.4: D (D=>20 uM)

SMILES: Cn1nc(C(N)=O)cc1-c1cnc(NC(C)(C)c2ncccc2Cl)nc1 [5-(2-{[1-(3-chloro(2-pyridyl))-isopropyl}amino}pyrimidin-5-yl)-1-methylpyrazole-3-carboxamide]
- Mean AC1.4: D (D=>20 uM)

SMILES: CC(C)(CNc1ncc(-c2ccc3[nH]c(=O)[nH]c3c2)cn1)c1ccc(F)cc1 [5-(2-{[2-(4-fluorophenyl)-2-methylpropyl]amino}pyrimidin-5-yl)-3-hydrobenzimidazol-2-one]
- Mean AC1.4: B (B=1-10 uM)

SMILES: CC(C)(CNc1ncc(-c2cncc(C#N)c2)cn1)c1ccc(F)cc1 [5-(2-{[2-(4-fluorophenyl)-2-methylpropyl]amino}pyrimidin-5-yl)pyridine-3-carbonitrile]
- Mean AC1.4: B (B=1-10 uM)

SMILES: CC(C)(CNc1ncc(-c2cncc(C(N)=O)c2)cn1)c1ccc(F)cc1 [5-(2-{[2-(4-fluorophenyl)-2-methylpropyl]amino}pyrimidin-5-yl)pyridine-3-carboxamide]
- Mean AC1.4: B (B=1-10 uM)

SMILES: N#Cc1n[nH]c2ccc(-c3cnc(NC4(c5ncccc5F)CCC4)nc3)cc12 [5-(2-{[(3-fluoro-2-pyridyl)cyclobutyl]amino}pyrimidin-5-yl)-1H-indazole-3-carbonitrile]
- Mean AC1.4: B (B=1-10 uM)

SMILES: NC(=O)c1n[nH]c2ccc(-c3cnc(NC4(c5ncccc5F)CCC4)nc3)cc12 [5-(2-{[(3-fluoro-2-pyridyl)cyclobutyl]amino}pyrimidin-5-yl)-1H-indazole-3-carboxamide]
- Mean AC1.4: A (A=<1 uM)

SMILES: NC(=O)c1nc2cnc(NCC3(c4ncccc4F)CCC3)nc2s1 [5-({[(3-fluoro-2-pyridyl)cyclobutyl]methyl}amino)-1,3-thiazolo[5,4-d]pyrimidine-2-carboxamide]
- Mean AC1.4: C (C=10-20 uM)

SMILES: O=C(O)c1nc2cnc(NCC3(c4ncccc4F)CCC3)nc2s1 [5-({[(3-fluoro-2-pyridyl)cyclobutyl]methyl}amino)-1,3-thiazolo[5,4-d]pyrimidine-2-carboxylic acid]
- Mean AC1.4: D (D=>20 uM)

SMILES: CC(C)(CNc1ncc(Br)cn1)c1ccc(F)cc1 [5-Bromo-N-(2-(4-fluorophenyl)-2-methylpropyl)pyrimidin-2-amine]
- Mean AC1.4: D (D=>20 uM)

SMILES: NC(=O)c1cc(-c2cnc(NC[C@]3(c4ncccc4F)C[C@H](F)C3)nc2)ccc1O [5-[2-({[3-fluoro-1-(3-fluoro(2-pyridyl))cyclobutyl]methyl)amino)pyrimidin-5-yl]-2-hydroxybenzamide]
- Mean AC1.4: A (A=<1 uM)

SMILES: O=c1[nH]cc(-c2cnc(NC[C@]3(c4ncccc4F)C[C@H](F)C3)nc2)c(=O)[nH]1 [5-[2-({[3-fluoro-1-(3-fluoro(2-pyridyl))cyclobutyl]methyl}amino)pyrimidin-5-yl]-1,3-dihydropyrimidine-2,4-dione]
- Mean AC1.4: D (D=>20 uM)

SMILES: Oc1ccc(-c2cnc(NC[C@]3(c4ncccc4F)C[C@H](F)C3)nc2)cn1 [5-[2-({[3-fluoro-1-(3-fluoro(2-pyridyl))cyclobutyl]methyl}amino)pyrimidin-5-yl]pyridin-2-ol]
- Mean AC1.4: D (D=>20 uM)

SMILES: Oc1ncc(-c2cnc(NC[C@]3(c4ncccc4F)C[C@H](F)C3)nc2)cn1 [5-[2-({[3-fluoro-1-(3-fluoro(2-pyridyl))cyclobutyl]methyl}amino)pyrimidin-5-yl]pyrimidin-2-ol]
- Mean AC1.4: D (D=>20 uM)

SMILES: Nc1ccnn1C(=O)c1cnc(NCC2(c3ncccc3F)CCC2)nc1 [5-aminopyrazolyl 2-({[(3-fluoro(2-pyridyl))cyclobutyl]methyl}amino) pyrimidin-5-yl ketone]
- Mean AC1.4: C (C=10-20 uM)

SMILES: Oc1cnc(-c2cnc(NC[C@]3(c4ncccc4F)C[C@H](F)C3)nc2)c(F)c1 [5-fluoro-6-[2-(([3-fluoro-1-(3-fluoro(2-pyridyl))cyclobutyl]methyl}amino)pyrimidin-5-yl]pyridin-3-ol]
- Mean AC1.4: B (B=1-10 uM)

SMILES: Oc1ncc(-c2cnc(N3CC4(c5ncccc5F)CC3C4)nc2)cn1 [5-{2-[4-(3-fluoro-2-pyridyl)-2-azabicyclo[2.1.1]hex-2-yl]pyrimidin-5-yl}pyrimidin-2-ol]
- Mean AC1.4: D (D=>20 uM)

SMILES: CC(C)(Nc1ncc(-c2cnc3c(c2)NC(=O)C3)cn1)c1ncccc1Cl [6-(2-{[1-(3-chloro(2-pyridyl))-isopropyl]amino}pyrimidin-5-yl)-2-pyrrolino[3,2-b]pyridin-2-one]
- Mean AC1.4: D (D=>20 uM)
